Results from US20200216441A1, “PESTICIDALLY ACTIVE HETEROCYCLIC DERIVATIVES WITH SULFUR CONTAINING SUBSTITUENTS” (SYNGENTA PARTICIPATIONS AG, priority 2017, published 2020).

Assays:
[1] = tested on: Euschistus heros (Neotropical Brown Stink Bug); assay: whole plant or invertebrate; type: in vivo; conditions: 120 h, application rate of 200 ppm, N2 nymphs on sprayed soybean leaves, 5 days after infestation, read-out: effect in at least one of the two categories (mortality or growth inhibition)
[2] = tested on: Tetranychus urticae (Two-Spotted Spider Mite); conditions: foliar, 192 h
[3] = tested on: Plutella xylostella (Diamond Back Moth); assay: whole plant or invertebrate; type: in vivo; conditions: 120 h, application rate of 200 ppm, L2 larvae on treated artificial diet, 5 days after infestation, read-out: effect in at least one of the two categories (mortality or growth inhibition)
[4] = tested on: Spodoptera littoralis (Egyptian Cotton Leaf Worm); assay: whole plant or invertebrate; conditions: in Gossypium barbadense, foliar, 72 h, read-out: control (mortality, anti-feeding effect, growth inhibition)
[5] = tested on: Bemisia tabaci (Cotton White Fly); conditions: in Gossypium hirsutum, foliar, 144 h
[6] = tested on: Diabrotica Balteata (Corn Root Worm); assay: Diabrotica balteata (Corn Root Worm); conditions: in Zea mays, 96 h, read-out: effect in at least one of the two categories (mortality or growth inhibition)
[7] = tested on: Myzus persicae (Green Peach Aphid); assay: whole plant or invertebrate; type: in vivo; conditions: 144 h, test rate of 24 ppm, systemic, roots of infested pea seedlings in test solution, 6 days
[8] = tested on: Myzus persicae (Green Peach Aphid); assay: whole plant or invertebrate; conditions: foliar, 144 h
[9] = tested on: Frankliniella occidentalis (Western Flower Thrips); conditions: foliar, 168 h

CCSc1cc(OC(C)(C)C(=O)O)cnc1-c1nc2cc(C(F)(F)F)ncc2n1C
melting point: 161 to 163 °C

CCS(=O)(=O)c1cc(OC(F)(F)CBr)ccc1-c1nc2cc(C(F)(F)F)ncc2n1C
melting point: 137 to 139 °C

CCS(=O)(=O)c1cc(OC(C)(F)F)ccc1-c1nc2cc(C(F)(F)F)ncc2n1C
melting point: 142 to 144 °C

CCS(=O)(=O)c1cc(OC(C#N)SC)cnc1-c1nc2cc(C(F)(F)F)ncc2n1C (centres unmarked)
melting point: 204 to 206 °C

CCS(=O)(=O)c1cc(OC(C(=O)OC)S(C)(=O)=O)cnc1-c1nc2cc(C(F)(F)F)ncc2n1C (centres unmarked)
melting point: 122 to 124 °C

CCS(=O)(=O)c1cc(OC(SC)C(=O)OC)cnc1-c1nc2cc(C(F)(F)F)ncc2n1C (centres unmarked)
melting point: 94 to 96 °C

CCS(=O)(=O)c1cc(OC(SC)C(N)=O)cnc1-c1nc2cc(C(F)(F)F)ncc2n1C (centres unmarked)
melting point: 142 to 144 °C

CCS(=O)(=O)c1cc(OC(C)C(=O)OC)cnc1-c1nc2cc(C(F)(F)F)ncc2n1C (centres unmarked)
melting point: 131 to 133 °C

CCOC(=O)C(C)(C)Oc1cnc(-c2nc3cc(C(F)(F)F)ncc3n2C)c(S(=O)(=O)CC)c1
melting point: 145 to 147 °C

CCS(=O)(=O)c1cc(OC(C)(C)C(=O)O)cnc1-c1nc2cc(C(F)(F)F)ncc2n1C
melting point: 242 to 244 °C

CCS(=O)(=O)c1cc(OC(C)(C)C(C)=O)cnc1-c1nc2cc(C(F)(F)F)ncc2n1C
melting point: 138 to 140 °C

CCS(=O)(=O)c1cc(OC(C)(C)C)cnc1-c1nc2cc(C(F)(F)F)ncc2n1C [Compound P5, 2-(5-tert-butoxy-3-ethylsulfonyl-2-pyridyl)-3-methyl-6-(trifluoromethyl)imidazo[4,5-c]pyridine]
percent effect (mortality or growth inhibition) at 200 ppm [1]: ≥ 80% | mortality at 200 ppm [2]: ≥ 80% | percent effect (mortality or growth inhibition) at 200 ppm [3]: ≥ 80% | mortality at 200 ppm [4]: ≥ 80% | mortality at 200 ppm [5]: ≥ 80% | mortality at 200 ppm [6]: ≥ 80% | mortality at 24 ppm [7]: ≥ 80% | mortality at 200 ppm [8]: ≥ 80%

CCS(=O)(=O)c1cc(OCSC)cnc1-c1nc2cc(C(F)(F)F)ncc2n1C [Compound P10, 2-[3-ethylsulfonyl-5-(methylsulfanylmethoxy)-2-pyridyl]-3-methyl-6-(trifluoromethyl)imidazo[4,5-c]pyridine]
mortality at 200 ppm [9]: ≥ 80% | percent effect (mortality or growth inhibition) at 200 ppm [1]: ≥ 80% | mortality at 200 ppm [4]: ≥ 80% | mortality at 200 ppm [5]: ≥ 80% | mortality at 200 ppm [6]: ≥ 80% | mortality at 24 ppm [7]: ≥ 80% | mortality at 200 ppm [8]: ≥ 80%

CCS(=O)(=O)c1cc(OCC(C)(F)F)cnc1-c1nc2cc(C(F)(F)F)ncc2n1C [Compound P41, 2-[5-(2,2-difluoropropoxy)-3-ethylsulfonyl-2-pyridyl]-3-methyl-6-(trifluoromethyl)imidazo[4,5-c]pyridine]
mortality at 200 ppm [9]: ≥ 80% | percent effect (mortality or growth inhibition) at 200 ppm [1]: ≥ 80% | percent effect (mortality or growth inhibition) at 200 ppm [3]: ≥ 80% | mortality at 200 ppm [4]: ≥ 80% | mortality at 200 ppm [5]: ≥ 80% | mortality at 200 ppm [6]: ≥ 80% | mortality at 24 ppm [7]: ≥ 80% | mortality at 200 ppm [8]: ≥ 80%

CCS(=O)(=O)c1cc(OC(C)(C)CC#N)cnc1-c1nc2cc(C(F)(F)F)ncc2n1C [Compound P47, 3-[[5-ethylsulfonyl-6-[3-methyl-6-(trifluoromethyl)imidazo[4,5-c]pyridin-2-yl]-3-pyridyl]oxy]-3-methyl-butanenitrile]
percent effect (mortality or growth inhibition) at 200 ppm [1]: ≥ 80% | mortality at 200 ppm [2]: ≥ 80% | percent effect (mortality or growth inhibition) at 200 ppm [3]: ≥ 80% | mortality at 200 ppm [5]: ≥ 80% | mortality at 200 ppm [6]: ≥ 80% | mortality at 24 ppm [7]: ≥ 80% | mortality at 200 ppm [8]: ≥ 80%

CCS(=O)(=O)c1cc(OC(CF)CF)cnc1-c1nc2cc(C(F)(F)F)ncc2n1C [Compound P53, 2-[3-ethylsulfonyl-5-[2-fluoro-1-(fluoromethyl)ethoxy]-2-pyridyl]-3-methyl-6-(trifluoromethyl)imidazo[4,5-c]pyridine]
mortality at 200 ppm [9]: ≥ 80% | percent effect (mortality or growth inhibition) at 200 ppm [1]: ≥ 80% | mortality at 200 ppm [2]: ≥ 80% | percent effect (mortality or growth inhibition) at 200 ppm [3]: ≥ 80% | mortality at 200 ppm [4]: ≥ 80% | mortality at 200 ppm [5]: ≥ 80% | mortality at 200 ppm [6]: ≥ 80% | mortality at 24 ppm [7]: ≥ 80% | mortality at 200 ppm [8]: ≥ 80%

CCS(=O)(=O)c1cc(OC(C)C)cnc1-c1nc2cc([S+]([O-])C(F)(F)F)ncc2n1C (centres unmarked) [Compound P60, 2-(3-ethylsulfonyl-5-isopropoxy-2-pyridyl)-3-methyl-6-(trifluoromethylsulfinyl)imidazo[4,5-c]pyridine]
mortality at 200 ppm [9]: ≥ 80% | percent effect (mortality or growth inhibition) at 200 ppm [1]: ≥ 80% | mortality at 200 ppm [2]: ≥ 80% | percent effect (mortality or growth inhibition) at 200 ppm [3]: ≥ 80% | mortality at 200 ppm [4]: ≥ 80% | mortality at 200 ppm [5]: ≥ 80% | mortality at 24 ppm [7]: ≥ 80% | mortality at 200 ppm [8]: ≥ 80%

CCS(=O)(=O)c1cc(OC2CCC2)cnc1-c1nc2cc(C(F)(F)F)ncc2n1C [Compound P62, 2-[5-(cyclobutoxy)-3-ethylsulfonyl-2-pyridyl]-3-methyl-6-(trifluoromethyl)imidazo[4,5-c]pyridine]
percent effect (mortality or growth inhibition) at 200 ppm [1]: ≥ 80% | mortality at 200 ppm [2]: ≥ 80% | percent effect (mortality or growth inhibition) at 200 ppm [3]: ≥ 80% | mortality at 200 ppm [4]: ≥ 80% | mortality at 200 ppm [5]: ≥ 80% | mortality at 200 ppm [6]: ≥ 80% | mortality at 200 ppm [8]: ≥ 80%

CCS(=O)(=O)c1cc(OC(C)C)cnc1-c1nc2cc(SC(F)(F)F)ncc2n1C [Compound P71, 2-(3-ethylsulfonyl-5-isopropoxy-2-pyridyl)-3-methyl-6-(trifluoromethylsulfanyl)imidazo[4,5-c]pyridine]
percent effect (mortality or growth inhibition) at 200 ppm [1]: ≥ 80% | mortality at 200 ppm [2]: ≥ 80% | percent effect (mortality or growth inhibition) at 200 ppm [3]: ≥ 80% | mortality at 200 ppm [4]: ≥ 80% | mortality at 200 ppm [5]: ≥ 80% | mortality at 200 ppm [6]: ≥ 80% | mortality at 200 ppm [8]: ≥ 80%

CCS(=O)(=O)c1cc(OC(C)(C)C(F)(F)F)cnc1-c1nc2cc(C(F)(F)F)ncc2n1C [Compound P76, 2-[3-ethylsulfonyl-5-(2,2,2-trifluoro-1,1-dimethyl-ethoxy)-2-pyridyl]-3-methyl-6-(trifluoromethyl)imidazo[4,5-c]pyridine]
percent effect (mortality or growth inhibition) at 200 ppm [1]: ≥ 80% | mortality at 200 ppm [2]: ≥ 80% | percent effect (mortality or growth inhibition) at 200 ppm [3]: ≥ 80% | mortality at 200 ppm [4]: ≥ 80% | mortality at 200 ppm [5]: ≥ 80% | mortality at 200 ppm [6]: ≥ 80% | mortality at 200 ppm [8]: ≥ 80%

CCS(=O)(=O)c1cc(OC(C)(F)F)cnc1-c1nc2cc(C(F)(F)F)ncc2n1C [Compound P78, 2-[5-(1,1-difluoroethoxy)-3-ethylsulfonyl-2-pyridyl]-3-methyl-6-(trifluoromethyl)imidazo[4,5-c]pyridine]
mortality at 200 ppm [9]: ≥ 80% | percent effect (mortality or growth inhibition) at 200 ppm [1]: ≥ 80% | percent effect (mortality or growth inhibition) at 200 ppm [3]: ≥ 80% | mortality at 200 ppm [4]: ≥ 80% | mortality at 200 ppm [5]: ≥ 80% | mortality at 200 ppm [6]: ≥ 80% | mortality at 24 ppm [7]: ≥ 80% | mortality at 200 ppm [8]: ≥ 80%

CCS(=O)(=O)c1cc(OCC2(C#N)CC2)cnc1-c1nc2cc(C(F)(F)F)ncc2n1C [Compound P79, 1-[[5-ethylsulfonyl-6-[3-methyl-6-(trifluoromethyl)imidazo[4,5-c]pyridin-2-yl]-3-pyridyl]oxymethyl]cyclopropanecarbonitrile]
percent effect (mortality or growth inhibition) at 200 ppm [1]: ≥ 80% | mortality at 200 ppm [2]: ≥ 80% | percent effect (mortality or growth inhibition) at 200 ppm [3]: ≥ 80% | mortality at 200 ppm [4]: ≥ 80% | mortality at 200 ppm [5]: ≥ 80% | mortality at 200 ppm [6]: ≥ 80% | mortality at 24 ppm [7]: ≥ 80% | mortality at 200 ppm [8]: ≥ 80%

CCS(=O)(=O)c1cc(OC(C)C)cnc1-c1nc2cc([S+]([O-])C(F)F)ncc2n1C (centres unmarked) [Compound P87, 6-(difluoromethylsulfinyl)-2-(3-ethylsulfonyl-5-isopropoxy-2-pyridyl)-3-methyl-imidazo[4,5-c]pyridine]
percent effect (mortality or growth inhibition) at 200 ppm [1]: ≥ 80% | mortality at 200 ppm [2]: ≥ 80% | percent effect (mortality or growth inhibition) at 200 ppm [3]: ≥ 80% | mortality at 200 ppm [4]: ≥ 80% | mortality at 24 ppm [7]: ≥ 80% | mortality at 200 ppm [8]: ≥ 80%

CCS(=O)(=O)c1cc(OC(C)C)cnc1-c1nc2cc(S(=O)(=O)C(F)F)ncc2n1C [Compound P88, 6-(difluoromethylsulfonyl)-2-(3-ethylsulfonyl-5-isopropoxy-2-pyridyl)-3-methyl-imidazo[4,5-c]pyridine]
percent effect (mortality or growth inhibition) at 200 ppm [1]: ≥ 80% | mortality at 200 ppm [2]: ≥ 80% | percent effect (mortality or growth inhibition) at 200 ppm [3]: ≥ 80% | mortality at 200 ppm [4]: ≥ 80% | mortality at 24 ppm [7]: ≥ 80% | mortality at 200 ppm [8]: ≥ 80%

CCS(=O)(=O)c1cc(OCCSC)ccc1-c1nc2cc(C(F)(F)F)ncc2n1C [Compound P104, 2-[2-ethylsulfonyl-4-(2-methylsulfanylethoxy)phenyl]-3-methyl-6-(trifluoromethyl)imidazo[4,5-c]pyridine]
percent effect (mortality or growth inhibition) at 200 ppm [1]: ≥ 80% | mortality at 200 ppm [2]: ≥ 80% | mortality at 200 ppm [5]: ≥ 80% | mortality at 200 ppm [6]: ≥ 80% | mortality at 24 ppm [7]: ≥ 80% | mortality at 200 ppm [8]: ≥ 80%
